{"source": "patent US20160038448A1", "about": "“THE INHIBITION OF THE TOXIC EFFECTS OF ISLET AMYLOID FORMATION BY FLURBIPROFEN AND FLURBIPROFEN DERIVATIVES” (The Research Foundation for the State University of New York, priority 2013, published 2016)", "assay_type_in_all_cases": "biochemical", "key": {"human amylin": {"biological_target": "T1, human amylin (Homo sapiens, UniProt P10997)", "T1 construct": "Mature, fully processed, Amylin is 37 residues in length, contains a disulfide bond between residues 2 and 7; made in house; host or cells: chemical solid-phase peptide synthesis (Fmoc), no expression host", "T1 sequence (P10997 34-70 limits assumed)": "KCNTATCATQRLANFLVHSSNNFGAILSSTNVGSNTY", "experiment": "Right angle light scattering assay (RALS) without thioflavin-T", "conditions": "20-fold excess of aspirin (320 μM), amylin 16 μM, no thioflavin-T", "method": "Solutions were prepared by adding pH 7.4, 20 mM Tris buffer without thioflavin-T to lyophilized dry peptides for a final peptide concentration of 16 […] used an excitation and emission wavelength of 500 nm."}, "[1]": {"biological_target": "T2, pre-formed human amylin amyloid fibrils (Homo sapiens, UniProt P10997)", "T2 construct": "Mature, fully processed, Amylin is 37 residues in length, contains a disulfide bond between residues 2 and 7; made in house; host or cells: chemical solid-phase peptide synthesis (Fmoc), no expression host", "T2 sequence (P10997 34-70 limits assumed)": "T1 sequence (P10997 34-70 limits assumed)", "experiment": "Disaggregation of pre-formed amylin amyloid fibrils (thioflavin-T and TEM)", "conditions": "20-fold excess added after amyloid formation was complete, up to 48 hours", "description": "Solutions were prepared by adding pH 7.4, 20 mM Tris buffer and thioflavin-T to lyophilized dry peptides for a final peptide concentration of 16 M. For the studies of Aspirin and Ketoprofen, 0.25% DMSO was present in the solution. Measurements were made at 25° C. using a Beckman Coulter DTX880 plate reader without stirring. An excitation filter of 430 nm and an emission filter of 485 nm were used."}, "human IAPP": {"biological_target": "T3, human IAPP (Homo sapiens, UniProt P10997)", "T3 construct": "Mature, fully processed, Amylin is 37 residues in length, contains a disulfide bond between residues 2 and 7; made in house; host or cells: chemical solid-phase peptide synthesis (Fmoc), no expression host", "T3 sequence (P10997 34-70 limits assumed)": "T1 sequence (P10997 34-70 limits assumed)", "experiment": "Fluorescence detected thioflavin-T assay of the time course of amyloid formation", "conditions": "pH 7.4, 25° C.", "method": "Peptides were first dissolved in 100% hexafluoroisopropanol (HFIP) at a concentration 1.6 mM and then filtered to remove any preformed amyloid aggregates. For thioflavin-T fluorescence assays, aliquots were lyophilized and redissolved in pH 7.4, 20 mM Tris-HCl buffer at the desired concentration. Aspirin and Ketoprofen were prepared in 100% dimethyl sulfoxide (DMSO).\nSolutions were prepared by adding pH 7.4, 20 mM Tris buffer and thioflavin-T to lyophilized dry peptides for a final peptide concentration of […]. For the studies of Aspirin and Ketoprofen, 0.25% DMSO was present in the solution. Measurements were made at 25° C. using a Beckman Coulter DTX880 plate reader without stirring. An excitation filter of 430 nm and an emission filter of 485 nm were used. To test disaggregate activity of Aspirin, peptide was first incubated in low-binding 96-wells plate and monitored by plate reader to ensure the formation of amyloid fibrils.\nA mixture of flurbiprofen (1-20 parts) and human IAPP (1 part) was monitored by fluorescence detected thioflavin-T assays. The assays monitored the time course of amyloid formation (amount vs time) in the presence and absence of flurbiprofen.\nA mixture of OH-flurbiprofen and human IAPP were monitored by fluorescence detected thioflavin-T assays. Three different concentrations (1:1 ratio, 1:10 ratio and 1:20 ratio of IAPP to OH-flurbiprofen) were tested against human IAPP without any added OH-flurbiprofen. The assays monitored the time course of amyloid formation (amount vs time) in the presence and absence of a flurbiprofen derivative.\nThree different mixtures of NSAIDs (20 parts) and human IAPP (1 parts) were compared to each other and human IAPP alone by fluorescence detected thioflavin-T assays. The assays monitored the time course of amyloid formation (amount vs time) in the presence and absence of aspirin, naproxen and flurbiprofen."}, "human IAPP (amylin)": {"biological_target": "T4, human IAPP (amylin) (Homo sapiens, UniProt P10997)", "T4 construct": "Mature, fully processed, Amylin is 37 residues in length, contains a disulfide bond between residues 2 and 7; made in house; host or cells: chemical solid-phase peptide synthesis (Fmoc), no expression host", "T4 sequence (P10997 34-70 limits assumed)": "T1 sequence (P10997 34-70 limits assumed)", "experiment": "Transmission electron microscopy of amyloid fibrils", "conditions": "20-fold excess of NSAID over human IAPP, end of kinetic experiment", "method": "TEM was performed at the Life Science Microscopy Center at Stony Brook University. Aliquots were removed from the same solutions that were used for the fluorescence measurements. 5 μL of peptide solution was placed on carbon-coated Formvar 300 mesh copper grid for one minute and then negatively stained with saturated uranyl acetate for another one minute."}}, "note": "“Also recorded” adds a separate entry of the source.", "data": [{"compound": "CC(=O)Oc1ccccc1C(=O)O", "note": "[Aspirin]", "values": [{"measurement": "aggregation curves by right angle light scattering", "setting": "human amylin", "value": "does not inhibit amyloid formation by human amylin"}, {"measurement": "disaggregation of pre-formed amylin amyloid fibrils", "setting": "[1]", "value": "unable to disassemble pre-formed amylin amyloid; also recorded: does not disaggregate pre-formed human amylin amyloid fibrils"}, {"measurement": "disaggregation of pre-formed amylin amyloid fibrils", "setting": "[1]; listed as aspirin", "value": "does not disaggregate amylin amyloid; also recorded: no effect on the thioflavine-T signal"}, {"measurement": "inhibition of amyloid formation by human IAPP (amylin)", "setting": "human IAPP; 20 to 1 ratio of NSAID to human IAPP", "value": "do not inhibit amylin amyloid formation; also recorded: no inhibition of amyloid; also recorded: does not inhibit amyloid formation by human amylin"}, {"measurement": "final thioflavin-T intensity", "setting": "human IAPP; amylin 16 μM, aspirin up to 20-fold excess, 0.25% DMSO", "value": "no detectable effect on the final thioflavin-T intensity"}, {"measurement": "rate of amyloid formation as judged by T50", "setting": "human IAPP; amylin 16 μM, aspirin up to a 20-fold excess", "value": "no detectable effect on the rate of amyloid formation"}, {"measurement": "amyloid fibrils by TEM in presence of NSAID", "setting": "human IAPP (amylin)", "value": "no changes in amyloid formation"}, {"measurement": "amyloid fibrils by TEM in presence of NSAID", "setting": "human IAPP (amylin); listed as aspirin", "value": "Extensive matts of fibrils; also recorded: does not inhibit IAPP amyloid formation"}]}]}
